# From patent publication US4518581A, “Imparting low- or anti-cariogenic property to orally-usable products” (Kabushiki Kaisha Hayashibara Seibutsu Kagaku Kenkyujo, priority 1981, dated 1985)
# Tests used:
# [1] = molecular target: T1, water-insoluble glucan producing enzyme (Streptococcus downei, UniProt P27470); assay: Effect of saccharides on formation of water-insoluble glucan from sucrose (Experiment 3); type: biochemical, Streptococcus mutans 6715 strain; settings: saccharide reduced to 10% against sucrose: 1 ml 4 w/v % sucrose plus 1 ml 0.4 w/v % saccharide, 37° C., 16 hours
# T1 construct: to the supernatant was added with ammonium sulfate to give 60% saturation; endogenous in cells; host or cells: Streptococcus mutans 6715 strain (today S. sobrinus), culture supernatant, ammonium sulfate precipitate, dialyzed
# T1 sequence (P27470 39-1592): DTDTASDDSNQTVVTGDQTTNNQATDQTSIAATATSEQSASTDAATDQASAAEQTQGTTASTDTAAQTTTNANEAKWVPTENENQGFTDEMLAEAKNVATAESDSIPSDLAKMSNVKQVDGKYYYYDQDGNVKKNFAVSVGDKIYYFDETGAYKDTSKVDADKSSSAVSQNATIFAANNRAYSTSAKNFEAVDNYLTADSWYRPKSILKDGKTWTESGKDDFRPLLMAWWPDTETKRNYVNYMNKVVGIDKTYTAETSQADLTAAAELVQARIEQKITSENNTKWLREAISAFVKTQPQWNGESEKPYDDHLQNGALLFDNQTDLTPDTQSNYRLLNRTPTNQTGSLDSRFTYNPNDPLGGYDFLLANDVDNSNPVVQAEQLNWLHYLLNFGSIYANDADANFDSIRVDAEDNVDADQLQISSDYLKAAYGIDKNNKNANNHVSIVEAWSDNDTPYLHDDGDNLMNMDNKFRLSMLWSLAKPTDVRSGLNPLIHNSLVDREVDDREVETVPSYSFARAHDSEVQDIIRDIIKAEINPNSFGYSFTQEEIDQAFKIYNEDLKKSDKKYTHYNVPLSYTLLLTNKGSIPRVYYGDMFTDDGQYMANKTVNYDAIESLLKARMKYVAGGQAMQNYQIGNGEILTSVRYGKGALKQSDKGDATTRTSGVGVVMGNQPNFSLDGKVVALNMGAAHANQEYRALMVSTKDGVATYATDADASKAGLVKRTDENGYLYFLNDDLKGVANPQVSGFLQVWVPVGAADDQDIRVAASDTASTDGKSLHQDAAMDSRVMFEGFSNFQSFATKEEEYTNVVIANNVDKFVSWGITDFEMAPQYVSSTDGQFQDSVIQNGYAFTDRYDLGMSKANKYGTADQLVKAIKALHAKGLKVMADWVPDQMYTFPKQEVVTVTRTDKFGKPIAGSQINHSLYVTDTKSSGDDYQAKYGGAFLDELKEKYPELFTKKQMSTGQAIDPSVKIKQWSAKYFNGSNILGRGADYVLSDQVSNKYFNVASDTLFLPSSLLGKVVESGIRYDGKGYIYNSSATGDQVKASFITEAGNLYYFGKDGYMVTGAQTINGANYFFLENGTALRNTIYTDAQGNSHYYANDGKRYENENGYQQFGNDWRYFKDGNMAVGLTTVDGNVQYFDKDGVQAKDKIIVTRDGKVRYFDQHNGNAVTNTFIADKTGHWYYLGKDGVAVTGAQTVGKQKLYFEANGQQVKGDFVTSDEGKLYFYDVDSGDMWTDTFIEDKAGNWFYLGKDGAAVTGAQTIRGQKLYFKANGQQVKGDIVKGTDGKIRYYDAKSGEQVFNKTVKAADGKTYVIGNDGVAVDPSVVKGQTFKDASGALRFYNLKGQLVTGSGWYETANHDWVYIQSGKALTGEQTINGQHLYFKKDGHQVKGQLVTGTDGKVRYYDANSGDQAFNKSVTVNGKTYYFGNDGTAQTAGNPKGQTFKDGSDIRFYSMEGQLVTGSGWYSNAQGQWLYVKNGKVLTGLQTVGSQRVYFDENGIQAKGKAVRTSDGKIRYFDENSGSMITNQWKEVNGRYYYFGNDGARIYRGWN
# [2] = tested on: Streptococcus mutans 6715 strain; assay: Organic acid formation from saccharides by Streptococcus mutans cells, pH-measurement (Experiment 4); type: cell-based; settings: 37° C., 30 minutes; for organic acid formation from the saccharide: Streptococcus mutans 6715 cells; for pH-Level of the reaction mixture (organic acid formation): cell suspension, Stephan's buffer (pH 7.0), saccharide solution
# Description: Organic acid formation from some saccharides by Streptococcus mutans was tested: Streptococcus mutans 6715 strain was cultivaed similarly as in EXPERIMENT 1, and the cells, obtained by centrifuging the culture, were washed with 0.9 w/v % sodium chloride solution, followed by additional centrifugation. Two ml of a mixture solution, consisting of 0.2 ml of the cell suspension, prepared from about 100 ml of the culture, 1.5 ml of Stephan's buffer, and 0.3 ml aqueous solution of each saccharide as listed in TABLE II, was incubated at 37° C. for 30 minutes, followed by pH-measurement of the reaction mixture. The Stephan's buffer was prepared by the method as reported by R. M. Stephan et al., Journal of Dental Research, Vol.26, pp.15-41 (1947): One ml of Solution I, prepared by dissolving 17.89 g Na2 HPO4. 12H2 O, 7.92 g KOH and 6.81 g KH2 PO4 in water to give a final volume of 100 ml, was placed in a 100-ml volumetric flask, and mixed with about 90 ml of water. To the flask was added 1 ml of Solution II, prepared by dissolving 4.54 g KH2 PO4, 0.32 g MgSO4.7H2 O, 0.57 g CaSO4.2H2 O and 10 ml of 3.5% hydrochloric acid solution in water to give a final volume of 100 ml. This mixture was diluted with additional water to obtain 100 ml of Stephan's buffer (pH 7.0).
# The results are given in TABLE II, wherein the organic acid formation from the saccharides can be estimated by the pH-values.
# [3] = molecular target: T1, water-insoluble glucan producing enzyme; assay: Effect of saccharides on formation of water-insoluble glucan from sucrose (Experiment 3); type: biochemical, Streptococcus mutans 6715 strain; settings: 1 ml 4 w/v % sucrose plus 1 ml 4 w/v % saccharide, 0.02 units enzyme, 37° C., 16 hours; for A: amounts of water-insoluble glucan formed: sucrose control 300
# Description: After completion of the cultivation, the culture was separated into cell precipitant and supernatant. Thereafter, to the supernatant was added with ammonium sulfate to give 60% saturation, and the resultant precipitant was dialyzed against 0.1M phosphate buffer (pH 7.2) to obtain an aqueous solution containing the enzyme.
# The titers of the enzyme were assayed as follows: A mixture solution, consisting of 1 ml of 0.2M aqueous sucrose solution, 1 ml of water, 1 ml of 0.1M phosphate buffer containing 0.05 w/v % NaN3, and 0.5 ml of the enzyme solution (below 0.05 units), is incubated at 37° C. for 9 hours, followed by centrifugation of the reaction mixture. The resultant precipitant is mixed with 4 ml of 0.5N sodium hydroxide solution, and then incubated at this temperature for an additional one hour to dissolve the precipitant. The amount of water-insoluble glucan formed during the enzymatic reaction is then measured. One unit of the enzyme is defined as the amount of enzyme that transfers 1 μmole glucose from sucrose to the water-insoluble glucan in one minute.
# Effects of some saccharides on the formation of water-insoluble glucan were tested: Water-insoluble glucan formation and inhibition thereof were determined according to the enzyme assay method as described in EXPERIMENT 1, except that the mixture solution contained sucrose, or sucrose and each saccharide as listed in TABLE I. The experiment was carried out as follows: A mixture solution, consisting of 1 ml of 4 w/v % aqueous sucrose solution, 1 ml of 4 w/v % aqueous solution of each saccharide as listed in TABLE I, 1.5 ml of 0.1M phosphate buffer containing 0.05 w/v % NaN3, and 0.5 ml of the enzyme solution (0.02 units), was incubated at 37° C. for 16 hours, and the water-insoluble glucan formation in the reaction mixture was determined according to the enzyme assy method.
# In a control experiment, 1 ml of the above described saccharide solution was replaced with the same amount of water.
# The inhibition degree was calculated with following equation:
# Inhibition degree (%)=100-A/B×100
# where A and B are respective amounts of the water-insoluble glucan formed (μg/ml) when the mixture solution contained sucrose or sucrose and each of the saccharides.
Compound,C: inhibition degree of water-insoluble glucan formation [1] [%],C: inhibition degree of water-insoluble glucan formation ([1]; listed as isomaltopentaose),organic acid formation from the saccharide [2],pH-Level of the reaction mixture (organic acid formation) [2],A: amounts of water-insoluble glucan formed [3] [µg/mL],C: inhibition degree of water-insoluble glucan formation ([1]; listed as isomaltosyl maltose),C: inhibition degree of water-insoluble glucan formation ([1]; listed as isomaltotetraose),B: inhibition degree on water-insoluble glucan formation [3] [%]
"OC[C@H]1O[C@H](OC[C@H]2O[C@H](OC[C@H]3O[C@H](OC[C@H]4O[C@H](OC[C@H]5OC(O)[C@H](O)[C@@H](O)[C@@H]5O)[C@H](O)[C@@H](O)[C@@H]4O)[C@H](O)[C@@H](O)[C@@H]3O)[C@H](O)[C@@H](O)[C@@H]2O)[C@H](O)[C@@H](O)[C@@H]1O (stereo partly drawn) [Isomaltopentaose, 6^3 -O-α-isomaltosyl isomaltotriose]",60,45-60%,no organic acid formation,7.0,15,–,–,–
"OC[C@H]1O[C@H](OC[C@H]2O[C@H](O[C@H]3[C@H](O)[C@@H](O)[C@@H](O[C@H]4[C@H](O)[C@@H](O)C(O)O[C@@H]4CO)O[C@@H]3CO)[C@H](O)[C@@H](O)[C@@H]2O)[C@H](O)[C@@H](O)[C@@H]1O (stereo partly drawn) [Isomaltosyl maltose, 4^2 -O-α-isomaltosyl maltose]",55,–,no organic acid formation,7.0,24,45-60%,–,–
"OC[C@H]1O[C@H](OC[C@H]2O[C@H](OC[C@H]3O[C@H](OC[C@H]4OC(O)[C@H](O)[C@@H](O)[C@@H]4O)[C@H](O)[C@@H](O)[C@@H]3O)[C@H](O)[C@@H](O)[C@@H]2O)[C@H](O)[C@@H](O)[C@@H]1O (stereo partly drawn) [Isomaltotetraose, 6^2 -O-α-isomaltosyl isomaltose]",58,–,no organic acid formation,7.0,18,–,45-60%,–
OC[C@H]1O[C@H](O[C@H]2[C@H](O)[C@@H](O)[C@@H](O[C@H]3[C@H](O)[C@@H](O)[C@@H](O[C@H]4[C@H](O)[C@@H](O)[C@@H](O[C@H]5[C@H](O)[C@@H](O)C(O)O[C@@H]5CO)O[C@@H]4CO)O[C@@H]3CO)O[C@@H]2CO)[C@H](O)[C@@H](O)[C@@H]1O (stereo partly shown) [Maltopentaose],–,–,–,5.6,264,–,–,12
OC[C@H]1O[C@H](O[C@H]2[C@H](O)[C@@H](O)[C@@H](O[C@H]3[C@H](O)[C@@H](O)[C@@H](O[C@H]4[C@H](O)[C@@H](O)C(O)O[C@@H]4CO)O[C@@H]3CO)O[C@@H]2CO)[C@H](O)[C@@H](O)[C@@H]1O (stereo partly shown) [Maltotetraose],–,–,–,5.3,255,–,–,15
OC[C@@H](O)[C@@H](O[C@H]1O[C@H](CO)[C@@H](O[C@H]2O[C@H](CO)[C@@H](O)[C@H](O)[C@H]2O)[C@H](O)[C@H]1O)[C@H](O)[C@@H](O)CO [Maltotriitol],–,–,–,7.0,262,–,–,13
OC[C@H]1O[C@H](O[C@H]2[C@H](O)[C@@H](O)[C@@H](O[C@H]3[C@H](O)[C@@H](O)C(O)O[C@@H]3CO)O[C@@H]2CO)[C@H](O)[C@@H](O)[C@@H]1O (stereo partly shown) [Maltotriose],–,–,–,5.0,213,–,–,29
O=C(CO)[C@@H](O)[C@H](O[C@H]1O[C@H](CO)[C@@H](O)[C@H](O)[C@H]1O)[C@H](O)CO [Maltulose],–,–,–,7.0,180,–,–,40
OC[C@@H](O)[C@@H](O)[C@H](O)[C@H](O)CO [Mannitol],–,–,–,7.0,286,–,–,5
OC[C@H]1O[C@H](OC[C@H]2OC(O)[C@H](O)[C@@H](O)[C@@H]2O)[C@H](O)[C@@H](O)[C@H]1O (stereo partly shown) [Melibiose],–,–,–,7.0,300,–,–,–
CO[C@H]1O[C@H](CO)[C@@H](O)[C@H](O)[C@H]1O [Methyl-α-D-Glucose],–,–,–,7.0,–,–,–,14
CC(=O)N[C@H]1C(O)O[C@H](CO)[C@@H](O)[C@@H]1O (stereo partly shown) [N--Acetyl glucosamine],–,–,–,7.0,285,–,–,5
"OC[C@@H](O)[C@@H](O[C@H]1O[C@H](CO[C@H]2O[C@H](CO)[C@@H](O)[C@H](O)[C@H]2O)[C@@H](O)[C@H](O)[C@H]1O)[C@H](O)[C@@H](O)CO [Pannitol, 4-O-α-isomaltosyl glucitol]",–,–,no organic acid formation,7.0,70,–,–,–
"C[C@@H]1OC(O)[C@H](O)[C@H](O)[C@H]1O (stereo partly drawn) [Rhamnose, L-Rhamnose]",–,–,–,7.0,300,–,–,0
OC[C@@H](O)[C@@H](O)[C@H](O)[C@@H](O)CO [Sorbitol],–,–,–,7.0,290,–,–,8
OC[C@H]1O[C@H](O[C@H]2O[C@H](CO)[C@@H](O)[C@H](O)[C@H]2O)[C@H](O)[C@@H](O)[C@@H]1O [Trehalose],–,–,–,7.0,297,–,–,1
O=C(CO)[C@@H](O[C@H]1O[C@H](CO)[C@@H](O)[C@H](O)[C@H]1O)[C@H](O)[C@H](O)CO [Turanose],–,–,–,7.0,273,–,–,9
OC[C@@H](O)[C@H](O)[C@@H](O)CO [Xylitol],–,–,–,7.0,280,–,–,7
Inulobiose,–,–,–,4.5,276,–,–,8
